The values that follow are results of earlier work, collected in patent US20240274252A1, “Dosage Calculator” (Closed Loop Medicine Ltd., priority 2023, published 2024).

Several values for one entry are separate records, joined by “and”; a condition that tells them apart may be missing. Equal entries are not always repeated. Where two headings read alike, the source gives them in different places.

Usually half-life stands for the time in which the quantity being followed falls by half.

Test in data set [1]: not given
The source holds these as a separate data set.

The conditions of data set [2]: for time to peak levels: immediate release.
Test in data set [3]: not given
This is another data set of the same source.

The conditions of data set [4]: model input parameter, FIG. 4A.
The conditions of data set [5]: patient population.

Regarding `CCCCCCOC(=O)NC(=N)c1ccc(NCc2nc3cc(C(=O)N(CCC(=O)OCC)c4ccccn4)ccc3n2C)cc1` [Dabigatran etexilate], where the note is “RELY”, the “risk of intracranial bleeds compared with warfarin” value is “small reduction”. Also, for the setting “phase III RELY study, patients with nonvalvular AF”, the comparison with warfarin entry is “superior to warfarin”.
Turning to `[H]/N=C(/N)c1ccc(NCc2nc3cc(C(=O)N(CCC(=O)O)c4ccccn4)ccc3n2C)cc1` [dabigatran], the “increase in maximum concentration, Cmax” value in data set [1] (with Quinidine) is on record as 56%. Also, the “increase in total absorption” value in data set [1] (with Quinidine) is reported as 53%. For the same molecule, the “increase in total exposure” value in data set [1] (with ketoconazole) is reported as approximately 1.4 fold; in data set [1] (with verapamil, depending on when the drug is taken), 2.4 fold. In addition, the half-life in data set [2] (elimination after absorption) is 12 to 17 h and 12 to 14 h. Also, the “acyl glucuronides, mean share of parent drug in the plasma” value in data set [2] (equally active metabolites) is given as approximately 10%. In addition, the entries for the “time to peak levels” value in data set [2] (after food) and in data set [2] (taken without food) were 3 to 4 h and “approximately 1 hour”, respectively. The PK linearity result in data set [2] (in vivo) is given as “linear”. Further, the mean half-life in data set [2] (in vivo) was 12 h. For the same molecule, in data set [2] (in vivo), the “share of absorbed drug eliminated into urine” value is listed as 80%. For the same molecule, the “variability in circulating plasma levels” value in data set [2] (inter-subject, from prodrug conversion and low GI absorption) is “up to 50%”. The “remainder of the drug going into the faeces” value in data set [2] (oral) was approximately 90%. In data set [2] (oral), the “time of peak absorption” value was approximately 1 h. Moreover, in data set [2] (oral, after conversion from prodrug dabigatran etexilate), the “fraction of the drug absorbed from the GI tract” value was ~5% and 3-7%. For the same molecule, in data set [2] (pellets removed from the capsule), the increase in availability was 75%. For the same molecule, the “elimination via the kidney, share of total clearance” value in data set [2] (primary route of elimination) was 80%. The “total and peak systemic exposure versus dose” value in data set [2] (range 50-400 mg twice daily) is “dose-proportional”. For the same molecule, the “delay of the peak by food” value in data set [2] (with food, total absorption not affected) is not above 2 h. Moreover, the “Change in Drug Level Exposure (AUC)” value was 0.41% increase per year older compared to 72 yr in data set [3] (Age, per year older compared to 72 yr); 12% increase in data set [3] (Amiodarone co-administration); 1.8 fold increase in data set [3] (CrCl = 30, relative to median CrCl of 69 in RE-LY); 1.3 fold increase in data set [3] (CrCl = 50, relative to median CrCl of 69 in RE-LY); approximately 13% decrease in data set [3] (PPIs co-administration); ~26% increase in South Asians compared to other in data set [3] (South Asians compared to other ethnicities). Moreover, the “Change in Drug Level Exposure (AUC)” value is on record as 23% increase in data set [3] (Verapamil co-administration); “no effect on AUC” in data set [3] (covariate Haemoglobin); “Weight had no effect on AUC but increase in distribution” in data set [3] (covariate Weight); ~9% increase in females compared to men in data set [3] (females compared to men); ~7% increase in patients with HF in data set [3] (patients with heart failure). For the same molecule, the “decrease in Vd” value in data set [3] (Hb above 14.3 g · dL^−1) is 4 %/1 g · dL^−1. In data set [3] (coadministration of Asprin, clopidogrel), the “Change in activity: chance of bleeding” value is given as “Coadministration will increase chance of bleeding”. For the same molecule, in data set [3] (low weight), the “effect on Cmax” value is listed as “will increase Cmax”. Moreover, the “Ka, first order drug absorption rate constant” value in data set [4] is on record as 0.754. For the same molecule, in data set [4], the “Q, intercompartmental clearance” value is reported as 35.5. Moreover, the “Vc, central compartment volume” value in data set [4] is on record as 673. In addition, in data set [4], the “Vp, peripheral compartment volume” value is reported as 345. The “range of trough plasma levels” value was 25 to 160 ng/mL in data set [5] (110 mg dose) and 40 to 220 ng/mL in data set [5] (150 mg dose).
